Reference: article PMC11790949, “A multiplex method for rapidly identifying viral protease inhibitors” (Molecular Systems Biology, 2025)
Like-named read-outs stand apart in the source and are kept apart here.

Columns and labels:
SARS-CoV-2-3CL [1] = target: T1, SARS-CoV-2-3CL (Severe acute respiratory syndrome coronavirus 2, UniProt P0DTD1); assay type: cell-based
BWCoV-SW1-3CL = assay type: cell-based, Beluga whale coronavirus SW1
SARS-CoV-2-3CL [2] = target: T1, SARS-CoV-2-3CL; test: cell-based
HCoV-HKU1-3CL = HCoV-HKU1-3CL (Human coronavirus HKU1, UniProt P0C6X2); assay type: cell-based
MERS-CoV-3CL = MERS-CoV-3CL (Middle East respiratory syndrome-related coronavirus, UniProt K9N7C7); assay type: cell-based
Bat-SV-CoVZC45-3CL = assay type: cell-based, Bat SL-CoVZC45
Bat-CoV-HKU9-3CL = Bat-CoV-HKU9-3CL (Bat coronavirus HKU9, UniProt P0C6W5); assay type: cell-based
HCoV-229E-3CL = HCoV-229E-3CL (Human coronavirus 229E, UniProt P0C6X1); assay type: cell-based
Bat-CoV-HKU4-3CL = Bat-CoV-HKU4-3CL (Bat coronavirus HKU4, UniProt P0C6W3); assay type: cell-based
HCoV-NL63-3CL = HCoV-NL63-3CL (Human coronavirus NL63, UniProt P0C6X5); assay type: cell-based
SARS-CoV-3CL = SARS-CoV-3CL (Severe acute respiratory syndrome coronavirus, UniProt P0C6X7); assay type: cell-based
HAV-3C = HAV-3C (Human hepatitis A virus genotype IB, UniProt P08617); assay type: cell-based
CV-B3-3C = CV-B3-3C (Coxsackievirus B3, UniProt P03313); assay type: cell-based
SARS-CoV-2 3CL protease = SARS-CoV-2 3CL protease (Severe acute respiratory syndrome coronavirus 2, UniProt P0DTD1); test: Biochemical inhibition of peptide cleavage by purified SARS-CoV-2 3CL protease (fluorogenic)
SARS-CoV-2 [3] = assay type: cell-based
HIV-2-PR = HIV-2-PR (Human immunodeficiency virus type 2 subtype A, UniProt P04584); assay type: cell-based
HIV-1-PR = HIV-1-PR (Human immunodeficiency virus type 1 group M subtype B, UniProt P04585); assay type: cell-based
SV-A-3C = assay type: cell-based, Salivirus
SARS-CoV-2 [4] = test: microbe, parasite or virus in culture; assay type: cell-based; details: Severe acute respiratory syndrome coronavirus 2, 24 h, read-out: A549-C3 (ACE2/TMPRSS2) IC50, inhibition of SARS-CoV-2 viral replication
SARS-CoV-PLP [5] = target: T2, SARS-CoV-PLP (Severe acute respiratory syndrome coronavirus, UniProt P0C6X7); test: cell-based
SARS-CoV-2 PLP [6] = target: T3, SARS-CoV-2 PLP (Severe acute respiratory syndrome coronavirus 2, UniProt P0DTD1); test: biochemical
SARS-CoV-2 PLP [7] = target: T3, SARS-CoV-2 PLP; assay type: biochemical
Bat-SL-CoVZC45-PLP [8] = target: T4, Bat-SL-CoVZC45-PLP (Bat SARS-like coronavirus, UniProt A0A2R3SV02); assay type: cell-based
SARS-CoV-2 [9] = test: microbe, parasite or virus in culture; assay type: cell-based; details: Severe acute respiratory syndrome coronavirus 2, Huh-7, 24 h, read-out: IC50, inhibition of SARS-CoV-2 viral replication in Huh7 cells
SARS-CoV-PLP [10] = target: T2, SARS-CoV-PLP; assay type: cell-based
Bat-SL-CoVZC45-PLP [11] = target: T4, Bat-SL-CoVZC45-PLP; assay type: cell-based; remark: listed apart in the source
POWV-NS2B-GS-NS3 = assay type: cell-based, tick-borne Powassan virus
MERS-CoV-PLP = MERS-CoV-PLP (Middle East respiratory syndrome-related coronavirus, UniProt K9N7C7); assay type: cell-based
SARS-CoV-2 PLP [12] = target: T3, SARS-CoV-2 PLP; assay type: cell-based
SARS-CoV-2 PLP [13] = target: T3, SARS-CoV-2 PLP; assay type: cell-based; remark: listed apart in the source

## CCc1cc(=O)oc2cc(OC(=O)c3ccco3)ccc12 [CB6728297]
SARS-CoV-2-3CL [1]
  magratio: 0.9863
BWCoV-SW1-3CL
  magratio: 0.3619
SARS-CoV-2-3CL [2]
  EC50: 5.6 µM
HCoV-HKU1-3CL
  magratio: 0.5819
MERS-CoV-3CL
  magratio: 0.4038
Bat-SV-CoVZC45-3CL
  magratio: 0.6214
Bat-CoV-HKU9-3CL
  magratio: 0.9832
HCoV-229E-3CL
  magratio: 0.2941
Bat-CoV-HKU4-3CL
  magratio: 0.5386
HCoV-NL63-3CL
  magratio: 0.2557
SARS-CoV-3CL
  magratio: 1.394
HAV-3C
  magratio: 0.4338
CV-B3-3C
  magratio: 0.2591

## O=C(Oc1ccc2ccc(=O)oc2c1)c1cccs1 [CB6762077]
SARS-CoV-2-3CL [1]
  magratio: 0.436
BWCoV-SW1-3CL
  magratio: 0.4066
SARS-CoV-2-3CL [2]
  EC50: 7.7 µM
HCoV-HKU1-3CL
  magratio: 0.5727
Bat-SV-CoVZC45-3CL
  magratio: 0.28
Bat-CoV-HKU9-3CL
  magratio: 0.9258
HCoV-229E-3CL
  magratio: 0.2867
Bat-CoV-HKU4-3CL
  magratio: 0.7004
HCoV-NL63-3CL
  magratio: 0.351
SARS-CoV-3CL
  magratio: 0.6861
HAV-3C
  magratio: 0.356

## O=C(Oc1ccc2ccc(=O)oc2c1)c1ccco1 [CB6778425]
SARS-CoV-2-3CL [1]
  magratio: 0.6675
SARS-CoV-2 3CL protease; addition of substrate at 0 and 20 minutes
  shift of IC50 upon pre-incubation with SARS-CoV-2 3CL: shifts to lower IC50s
SARS-CoV-2 3CL protease; biochemical fluorogenic assay, read-out: IC50, purified SARS-CoV-2 3CL protease
  IC50: 0.062 µM
BWCoV-SW1-3CL
  magratio: 0.6941
SARS-CoV-2-3CL [2]
  EC50: 0.782 µM
HCoV-HKU1-3CL
  magratio: 0.7283
MERS-CoV-3CL
  magratio: 0.8027
Bat-SV-CoVZC45-3CL
  magratio: 0.8357
Bat-CoV-HKU9-3CL
  magratio: 0.8169
HCoV-229E-3CL
  magratio: 0.4915
Bat-CoV-HKU4-3CL
  magratio: 0.5241
HCoV-NL63-3CL
  magratio: 0.4867
SARS-CoV-2 [3]
  activity within a live virus setting: minimal activity
SARS-CoV-3CL
  magratio: 0.5878
HAV-3C
  magratio: 0.5812

## Cc1cccc(C)c1OCC(=O)N[C@@H](Cc1ccccc1)[C@@H](O)C[C@H](Cc1ccccc1)NC(=O)[C@H](C(C)C)N1CCCNC1=O [Lopinavir]
HIV-2-PR
  magratio: 0.9971
HIV-1-PR
  magratio: 1.188

## O=C(Oc1cncc(Cl)c1)c1cccs1 [MAC-5576, reference compound]
SARS-CoV-2-3CL [1]
  magratio: 0.9818
SV-A-3C
  magratio: 1.579
BWCoV-SW1-3CL
  magratio: 1.841
HCoV-HKU1-3CL
  magratio: 1.559
MERS-CoV-3CL
  magratio: 1.133
Bat-SV-CoVZC45-3CL
  magratio: 1.703
Bat-CoV-HKU9-3CL
  magratio: 1.805
HCoV-229E-3CL
  magratio: 1.36
Bat-CoV-HKU4-3CL
  magratio: 0.8566
HCoV-NL63-3CL
  magratio: 1.688
SARS-CoV-3CL
  magratio: 2.282
HAV-3C
  magratio: 0.7585

## CNC(=O)Oc1c(OC)ccnc1C [MAVDA-B-116]
SARS-CoV-2 [4]
  IC50: 16.6 µM
SARS-CoV-PLP [5]
  EC50: 0.4 to 1.7 µM
SARS-CoV-2 PLP [6]
  IC50: 18.1 µM
SARS-CoV-2 PLP [7]
  trend in IC50 as a function of pre-incubation time with SARS-CoV-2 PLP: downward trend in IC50

## CCOc1ccnc(C)c1OC(=O)NC [MAVDA-B-190]
SARS-CoV-2 [4]
  IC50: > 50 µM
SARS-CoV-PLP [5]
  EC50: 0.4 to 1.7 µM
SARS-CoV-2 PLP [6]
  IC50: 14.2 µM
SARS-CoV-2 PLP [7]
  trend in IC50 as a function of pre-incubation time with SARS-CoV-2 PLP: downward trend in IC50

## Cc1ccc(S)cc1.[Pb] [MAVDA-B-191]
SARS-CoV-PLP [5]
  activity in the yeast assay for SARS-CoV PLP: inactive
Bat-SL-CoVZC45-PLP [8]
  activity in the yeast assay for Bat SL-CoVZC45 PLP: inactive

## O=C(c1ccccc1)C(c1ccccc1)(c1ccccc1)c1ccccc1 [MAVDA-B-194]
SARS-CoV-PLP [5]
  activity in the yeast assay for SARS-CoV PLP: inactive
Bat-SL-CoVZC45-PLP [8]
  activity in the yeast assay for Bat SL-CoVZC45 PLP: inactive

## CNCC(N)=O.Cl [MAVDA-B-195]
SARS-CoV-PLP [5]
  activity in the yeast assay for SARS-CoV PLP: inactive
Bat-SL-CoVZC45-PLP [8]
  activity in the yeast assay for Bat SL-CoVZC45 PLP: inactive

## CNC(=O)Oc1c(OCc2ccccc2)ccnc1C [MAVDA-B-201]
SARS-CoV-2 [4]
  IC50: 41.2 µM
SARS-CoV-PLP [5]
  EC50: 0.4 to 1.7 µM
SARS-CoV-2 PLP [6]
  IC50: 9.8 µM
SARS-CoV-2 PLP [7]
  trend in IC50 as a function of pre-incubation time with SARS-CoV-2 PLP: downward trend in IC50

## CNC(=O)Oc1c(OC(C)C)ccnc1C [MAVDA-B-217]
SARS-CoV-2 [4]
  IC50: 49.8 µM
SARS-CoV-PLP [5]
  EC50: 0.4 to 1.7 µM
SARS-CoV-2 PLP [6]
  IC50: 5.8 µM
SARS-CoV-2 PLP [7]
  trend in IC50 as a function of pre-incubation time with SARS-CoV-2 PLP: downward trend in IC50

## CNC(=O)Oc1c(OCC2CCCCC2)ccnc1C [MAVDA-B-219]
SARS-CoV-2 [4]
  IC50: 14.9 µM
SARS-CoV-PLP [5]
  EC50: 0.4 to 1.7 µM
SARS-CoV-2 [9]
  IC50: 16.3 µM
SARS-CoV-2 PLP [6]
  IC50: 3.5 µM
SARS-CoV-2 PLP [7]
  trend in IC50 as a function of pre-incubation time with SARS-CoV-2 PLP: downward trend in IC50

## CCOC(=O)C(=O)Cc1nc2ccccc2s1 [NSC38490]
MERS-CoV-3CL
  magratio: 0.2455

## COc1cc(O)c(C(=O)/C=C/c2ccccc2)c(OC)c1 [NSC51351]
SV-A-3C
  magratio: 0.2675
HCoV-HKU1-3CL
  magratio: 0.2725

## CCSc1nc(=S)cc(C)[nH]1 [NSC67307]
MERS-CoV-3CL
  magratio: 0.2279

## N#Cc1c(N)nc(N)nc1Nc1ccc(Br)cc1 [NSC71866]
SV-A-3C
  magratio: 0.2095
LGTV-NS2B-GS-NS3
  magratio: 0.2846

## Cc1cc2c(cc1C)N(C(=O)CCl)CC(=O)N2 [NSC138389]
SARS-CoV-2-3CL [1]
  magratio: 0.2809
BWCoV-SW1-3CL
  magratio: 0.6472
HCoV-HKU1-3CL
  magratio: 0.303
Bat-SV-CoVZC45-3CL
  magratio: 0.2787
Bat-CoV-HKU4-3CL
  magratio: 0.217
SARS-CoV-PLP [10]
  magratio: 0.5699
Bat-SL-CoVZC45-PLP [11]
  magratio: 0.922
POWV-NS2B-GS-NS3
  magratio: 0.5885
LGTV-NS2B-GS-NS3
  magratio: 0.3021

## CN(C(=O)c1ccncc1)c1ccccc1 [NSC204976]
MERS-CoV-3CL
  magratio: 0.3045

## S=c1[nH]c2ccccc2n2cccc12 [NSC246415]
Bat-CoV-HKU4-3CL
  magratio: 0.2265

## CCOC(=O)c1c(NC(=S)NC)sc2c1CCCC2 [NSC280492]
Bat-CoV-HKU4-3CL
  magratio: 0.288

## CNC(=O)Oc1c(C)[nH]ccc1=O [NSC287495]
MERS-CoV-PLP
  magratio: 0.4201
SARS-CoV-PLP [5]
  EC50: 22.8 µM
SARS-CoV-2 PLP [12]
  response of the SARS-CoV-2 PLP yeast model: relatively weak response
SARS-CoV-PLP [10]
  magratio: 0.9749
SARS-CoV-2 PLP [13]
  magratio: 0.3486
Bat-SL-CoVZC45-PLP [11]
  magratio: 0.8718

## N#CCS(=O)(=O)c1cccc[n+]1[O-] [NSC361056]
BWCoV-SW1-3CL
  magratio: 0.7101

## NC(N)=NC(=S)Nc1ccc(Cl)cc1 [NSC403374]
SARS-CoV-2-3CL [1]
  magratio: 0.7395
Bat-SV-CoVZC45-3CL
  magratio: 0.2507
SARS-CoV-3CL
  magratio: 0.3199

## Cc1cc(N(C)C)ccc1N=Nc1ccc2ncccc2c1 [NSC680516]
MERS-CoV-PLP
  magratio: 0.228

## GRL0617 [reference compound]
SARS-CoV-2 PLP [12]
  response of the SARS-CoV-2 PLP yeast model: blunted response
